The assay relates to B6C3F1 mice, B16 melanoma ip, median survival T/C. Nature of the assay: NCI In Vivo Anticancer Drug Screen. Data for tumor model B16 Melanoma (intraperitoneal) in B6C3F1 mice. The following applies: endpoint: median survival time, higher = longer survival. As to the method:
The antitumor activity of compounds was measured in mice bearing transplantable tumors. Survival or tumor size were measured and the results are expressed as the measurement made in the treated group (T) divided by the measurement made in the vehicle treated control group (C). The tumor model used in this assay is B16 Melanoma (intraperitoneal) in B6C3F1 mice

Where [1] appears, read: dose: 6.25 mg/kg/injection, schedule: Q01DX009 (ip), vehicle: saline.
Setting [2] is: dose: 12.5 mg/kg/injection, schedule: Q01DX009 (ip), vehicle: saline.
Where [3] appears, read: dose: 25.0 mg/kg/injection, schedule: Q01DX009 (ip), vehicle: saline.
[4] abbreviates: dose: 25.0 mg/kg/injection, schedule: Q01DX009 (ip), vehicle: saline with Tween-80.
Where [5] appears, read: dose: 50.0 mg/kg/injection, schedule: Q01DX009 (ip), vehicle: saline with Tween-80.
[6] abbreviates: dose: 100.0 mg/kg/injection, schedule: Q01DX009 (ip), vehicle: saline with Tween-80.
The mark [7] stands for this setting: dose: 200.0 mg/kg/injection, schedule: Q01DX009 (ip), vehicle: saline with Tween-80.
Where [8] appears, read: dose: 50.0 mg/kg/injection, schedule: Q01DX009 (ip), vehicle: saline.
Setting [9] is: dose: 100.0 mg/kg/injection, schedule: Q01DX009 (ip), vehicle: saline.
[10] abbreviates: dose: 100.0 mg/kg/injection, schedule: Q01DX009 (ip), vehicle: Klucel (hydroxypropylcellulose) (HPC).
Where [11] appears, read: dose: 200.0 mg/kg/injection, schedule: Q01DX009 (ip), vehicle: Klucel (hydroxypropylcellulose) (HPC).
The mark [12] stands for this setting: dose: 400.0 mg/kg/injection, schedule: Q01DX009 (ip), vehicle: Klucel (hydroxypropylcellulose) (HPC).

Consider 15 compounds from PubChem BioAssay AID200 (DTP/NCI, 2004).

“And” between values parts separate entries of the source, which are not always exact repeats. Equal values may be shown once. Toxic doses and inconclusive results are not listed. Where a SMILES comes first, the peptide text is derived from it. [ ]: non-standard residue; d: D form. The star is where a group is joined. ξ: configuration not given here. Cbz = O=C(OCc1ccccc1)*; OBn = c1ccc(CO*)cc1; Bn = c1ccc(C*)cc1; ξC = NC(CS)C(=O)O

For the compound `FC(F)(F)c1ccc2c(c1)N(CCCN1CCN(CCN3CCCCC3)CC1)c1ccccc1S2`, the T/C by setting is: (dose: 0.78 mg/kg/injection, schedule: Q01DX009 (ip), vehicle: saline) 94 % of control; (dose: 1.56 mg/kg/injection, schedule: Q01DX009 (ip), vehicle: saline) 109 % of control and 89 % of control; (dose: 3.12 mg/kg/injection, schedule: Q01DX009 (ip), vehicle: saline) 118 % of control and 99 % of control; under setting [1], 99 % of control and 101 % of control; under setting [2], 98 % of control; under setting [3], 94 % of control.
Turning to `CC(=O)NC(Cc1ccccc1)C(=O)NC(Cc1ccccc1)C(=O)O` (stereo not drawn) (Ac-Phe-Phe-OH; configuration not given here), the T/C under setting [4] is 107 % of control; the T/C under setting [5] is 100 % of control; the T/C under setting [6] was 102 % of control; the T/C under setting [7] is 104 % of control; the T/C (dose: 400.0 mg/kg/injection, schedule: Q01DX009 (ip), vehicle: saline with Tween-80) was 92 % of control.
As to `CC(=O)Nc1ccc(N=Nc2c(O)c(S(=O)(=O)O)cc3cc(S(=O)(=O)O)ccc23)cc1`, the T/C is 111 % of control under setting [5], 100 % of control under setting [6] and 98 % of control under setting [7].
Regarding `CCCCCCC/C=C/C(=O)OC1C(OC2C(OC(CCCCCCC)CC(=O)OC(CCCCCCC)CC(=O)O)OC(C)C(O)C2O)OC(C)C(O)C1O` (configuration not stated), the T/C reads like this: (dose: 0.78 mg/kg/injection, schedule: Q01DX009 (ip), vehicle: Klucel (hydroxypropylcellulose) (HPC)) 103 % of control; (dose: 1.56 mg/kg/injection, schedule: Q01DX009 (ip), vehicle: Klucel (hydroxypropylcellulose) (HPC)) 87 % of control; (dose: 3.12 mg/kg/injection, schedule: Q01DX009 (ip), vehicle: Klucel (hydroxypropylcellulose) (HPC)) 94 % of control.
As to `Cc1cn(C2CC(F)C(CO)O2)c(=O)[nH]c1=O` (configuration not stated), the T/C is 117 % of control (dose: 125.0 mg/kg/injection, schedule: Q01DX009 (ip), vehicle: suspension in saline) and 116 % of control (dose: 250.0 mg/kg/injection, schedule: Q01DX009 (ip), vehicle: suspension in saline).
As for `Cc1ccccc1N(CC1CO1)CC1CO1` (configuration not stated), the T/C by setting is: under setting [2], 113 % of control; under setting [3], 105 % of control; under setting [8], 100 % of control; under setting [9], 116 % of control; (dose: 200.0 mg/kg/injection, schedule: Q01DX009 (ip), vehicle: saline) 124 % of control.
Take `COc1ccc(-c2cc(=O)c3ccc4c(O)cccc4c3o2)cc1`: the T/C runs as follows: (dose: 3.12 mg/kg/injection, schedule: Q01DX009 (ip), vehicle: saline with Tween-80) 97 % of control; (dose: 6.25 mg/kg/injection, schedule: Q01DX009 (ip), vehicle: saline with Tween-80) 88 % of control; under setting [4], 86 % of control; under setting [5], 93 % of control.
`CC(O)C(NC(=O)CNC(=O)CNC(=O)OCc1ccccc1)C(=O)O` (configuration not stated) (HELM PEPTIDE1{[O=C(OCc1ccccc1)[*:2]].G.G.[CC(O)C(N[*:1])C(=O)O]}$$$$V2.0): the T/C under setting [10] is 103 % of control, the T/C under setting [11] was 106 % of control and the T/C under setting [12] was 113 % of control.
As for `NC(CCCNc1cccc(O)c1)C(=O)O` (configuration not stated), the T/C (dose: 75.0 mg/kg/injection, schedule: Q01DX009 (ip), vehicle: saline) was 104 % of control and the T/C under setting [9] was 87 % of control.
As for `O=NN(CCF)C(=O)NC1CCC(=O)NC1=O` (configuration not stated), the T/C is, setting by setting: (dose: 7.5 mg/kg/injection, schedule: Q01DX001 (ip), vehicle: saline) 192 % of control; (dose: 15.0 mg/kg/injection, schedule: Q01DX001 (ip), vehicle: saline) 194 % of control; (dose: 30.0 mg/kg/injection, schedule: Q01DX001 (ip), vehicle: saline) 235 % of control; (dose: 60.0 mg/kg/injection, schedule: Q01DX001 (ip), vehicle: saline) 233 % of control.
Turning to `CCCCCCCCCCCCCCCC(=O)Nc1ccn(C2OC(CO)C(O)C2O)c(=O)n1` (configuration not stated), the T/C by setting is: under setting [1], 98 % of control; under setting [3], 157 % of control; under setting [8], 180 % of control.
With `O=C(CNC(=O)C(CSCc1ccccc1)NC(=O)OCc1ccccc1)NCC(=O)OCc1ccccc1` (stereo not drawn) (Cbz-[ξC](Bn)-Gly-Gly-OBn), the T/C reads like this: (dose: 12.5 mg/kg/injection, schedule: Q01DX009 (ip), vehicle: Klucel (hydroxypropylcellulose) (HPC)) 92 % of control; (dose: 25.0 mg/kg/injection, schedule: Q01DX009 (ip), vehicle: Klucel (hydroxypropylcellulose) (HPC)) 88 % of control.
`COc1cc(C)c(C2NC(=O)c3ccccc3N2)cc1C` (configuration not stated): the T/C was 111 % of control and 120 % of control (dose: 50.0 mg/kg/injection, schedule: Q01DX009 (ip), vehicle: Klucel (hydroxypropylcellulose) (HPC)); 115 % of control and 105 % of control under setting [10]; 111 % of control under setting [11]; 112 % of control under setting [12]; 107 % of control (dose: 800.0 mg/kg/injection, schedule: Q01DX009 (ip), vehicle: Klucel (hydroxypropylcellulose) (HPC)).
Turning to `c1ccc2c(NCCCCCCNc3c4ccccc4nc4ccccc34)c3ccccc3nc2c1`, the T/C runs as follows: (dose: 0.62 mg/kg/injection, schedule: Q01DX009 (ip), vehicle: Klucel (hydroxypropylcellulose) (HPC)) 116 % of control; (dose: 1.25 mg/kg/injection, schedule: Q01DX009 (ip), vehicle: water) 111 % of control and 116 % of control; (dose: 1.58 mg/kg/injection, schedule: Q01DX009 (ip), vehicle: Klucel (hydroxypropylcellulose) (HPC)) 154 % of control; (dose: 2.37 mg/kg/injection, schedule: Q01DX009 (ip), vehicle: Klucel (hydroxypropylcellulose) (HPC)) 179 % of control; (dose: 2.5 mg/kg/injection, schedule: Q01DX009 (ip), vehicle: Klucel (hydroxypropylcellulose) (HPC)) 151 % of control; (dose: 2.5 mg/kg/injection, schedule: Q01DX009 (ip), vehicle: water) 112 % of control and 122 % of control. For the same compound, the T/C was 189 % of control (dose: 5.0 mg/kg/injection, schedule: Q01DX009 (ip), vehicle: Klucel (hydroxypropylcellulose) (HPC)); 123 % of control (dose: 5.0 mg/kg/injection, schedule: Q01DX009 (ip), vehicle: water); 213 % of control (dose: 5.33 mg/kg/injection, schedule: Q01DX009 (ip), vehicle: Klucel (hydroxypropylcellulose) (HPC)); 199 % of control (dose: 8.0 mg/kg/injection, schedule: Q01DX009 (ip), vehicle: Klucel (hydroxypropylcellulose) (HPC)); 200 % of control (dose: 10.0 mg/kg/injection, schedule: Q01DX009 (ip), vehicle: Klucel (hydroxypropylcellulose) (HPC)); 153 % of control (dose: 10.0 mg/kg/injection, schedule: Q01DX009 (ip), vehicle: water). Moreover, the T/C was 190 % of control (dose: 12.0 mg/kg/injection, schedule: Q01DX009 (ip), vehicle: Klucel (hydroxypropylcellulose) (HPC)); 206 % of control (dose: 20.0 mg/kg/injection, schedule: Q01DX009 (ip), vehicle: Klucel (hydroxypropylcellulose) (HPC)); 162 % of control (dose: 20.0 mg/kg/injection, schedule: Q01DX009 (ip), vehicle: water).
In the case of `O=CCC(O)C(O)C(O)CO` (configuration not stated), the T/C is 112 % of control (dose: 300.0 mg/kg/injection, schedule: Q01DX009 (ip), vehicle: saline); 103 % of control (dose: 600.0 mg/kg/injection, schedule: Q01DX009 (ip), vehicle: saline); 104 % of control (dose: 1200.0 mg/kg/injection, schedule: Q01DX009 (ip), vehicle: saline); 108 % of control (dose: 1800.0 mg/kg/injection, schedule: Q01DX009 (ip), vehicle: saline); 101 % of control (dose: 2400.0 mg/kg/injection, schedule: Q01DX009 (ip), vehicle: saline).
